According to paper PMC6691761, “Potential multifunctional agents with anti-hepatoma and anti-inflammation properties by inhibiting NF-кB activation” (Journal of Enzyme Inhibition and Medicinal Chemistry, 2019):

Key:
Format in all cases: cell-based
[1] = tested on: human normal hepatic cell line (LO2); test: Toxicity to normal cells, MTT assay, LO2; conditions: 24 h
Excerpt: (§1) Compounds 83–102 were screened against human neoplastic cell lines, such as human breast cancer cells (MCF-7), human colon cancer cells (HCT116), human lung carcinoma cells (A549), human gastric adenocarcinoma cells (SGC7901), human liver hepatocellular carcinoma cell line (HepG2), human cervical carcinoma cells (HeLa), human acute mononuclear granulocyte leukaemia (THP-1), and human normal hepatic cell line (LO2) using modified MTT assay. All the cells were obtained from the American Type Culture Collection (ATCC, Manassas, VA). The cells were cultured in DMEM or 1640. Positive controls (Doxorubicin (DOX) and Curcumin) and BAPs were initially dissolved in dimethyl sulphoxide (DMSO). Experimental concentration of DMSO was always 0.1% (v/v). The concentrations of BAPs and positive controls were 50, 20, 10, 5, 2.5, 1, 0.5, 0.1, 0.05, and 0.01 μg/mL.
(§2) The cells (1 × 10^4 cells/well) were seeded in a 96-well plate and incubated for 24 h. Cells treated with serial concentrations of drugs were incubated for another 24 h. After the media removed, 20 μL of MTT (5 mg/mL) solution was added and incubated for 4 h at 37 °C. The MTT solution was removed and then 150 μL of DMSO was added. The optical density was measured with a multi-well plate reader (TECAN, Mӓnnedorf, Switzerland) at 570 nm. The results are expressed as a decrease in the cell viability (%) in comparison to untreated controls. The concentration of each compound was examined in triplicate, and the IC50 values are expressed in Table 1.

[2] = tested on: human gastric adenocarcinoma cells (SGC7901); test: Cytotoxicity, MTT assay, SGC7901; conditions: for IC50: MTT, 24 h; for SGC7901 SI (selectivity index): quotient of IC50 towards LO2 cells
Excerpt: as §1, §2

[3] = tested on: human liver hepatocellular carcinoma cell line (HepG2); test: Cytotoxicity, MTT assay, HepG2; conditions: for IC50: MTT, 24 h; for HepG2 SI (selectivity index): quotient of IC50 towards LO2 cells
Excerpt: as §1, §2

[4] = tested on: human lung carcinoma cells (A549); test: Cytotoxicity, MTT assay, A549; conditions: for IC50: MTT, 24 h; for A549 SI (selectivity index): quotient of IC50 towards LO2 cells
Excerpt: as §1, §2

[5] = tested on: human acute mononuclear granulocyte leukaemia (THP-1); test: Cytotoxicity, MTT assay, THP-1; conditions: for IC50: MTT, 24 h; for THP-1 SI (selectivity index): quotient of IC50 towards LO2 cells
Excerpt: as §1, §2

[6] = tested on: human breast cancer cells (MCF-7); test: Cytotoxicity, MTT assay, MCF-7; conditions: for IC50: MTT, 24 h; for MCF-7 SI (selectivity index): quotient of IC50 towards LO2 cells
Excerpt: as §1, §2

[7] = tested on: human colon cancer cells (HCT116); test: Cytotoxicity, MTT assay, HCT116; conditions: for IC50: MTT, 24 h; for HCT116 SI (selectivity index): quotient of IC50 towards LO2 cells
Excerpt: as §1, §2

[8] = tested on: human cervical carcinoma cells (HeLa); test: Cytotoxicity, MTT assay, HeLa; conditions: for IC50: MTT, 24 h; for HeLa SI (selectivity index): quotient of IC50 towards LO2 cells
Excerpt: as §1, §2

Structure (SMILES) | IC50 [1] | IC50 [2] | SGC7901 SI (selectivity index) [2] | IC50 [3] | HepG2 SI (selectivity index) [3] | IC50 [4] | A549 SI (selectivity index) [4] | IC50 [5] | THP-1 SI (selectivity index) [5] | IC50 [6] | MCF-7 SI (selectivity index) [6] | IC50 [7] | HCT116 SI (selectivity index) [7] | IC50 [8] | HeLa SI (selectivity index) [8] | other results
COc1cc(/C=C2\CN(C)C/C(=C\c3ccc(F)cc3Br)C2=O)cc(OC)c1OC [Compound 88] | 14.8 ± 0.3 µM | 3.6 ± 0.1 µM | 4.1 | 5.3 ± 0.2 µM | 2.8 | 5.6 ± 0.3 µM | 2.6 | 7.6 ± 0.2 µM | 1.9 | 6.3 ± 0.4 µM | 2.3 | 6.5 ± 0.3 µM | 2.3 | 5.3 ± 0.3 µM | 2.8 | 
CN1CC(=Cc2cccc(N=Cc3ccc(Cl)cc3)c2)C(=O)C(=Cc2ccccc2F)C1 [Compound 94] | 18 ± 0.3 µM | 6.4 ± 0.1 µM | 2.8 | 4.8 ± 0.1 µM | 3.8 | 5.9 ± 0.3 µM | 3.1 | 4 ± 0.1 µM | 4.5 | 6.5 ± 0.1 µM | 2.8 | 6.3 ± 0.1 µM | 2.9 | 11.1 ± 0.3 µM | 1.6 | 
COc1ccc(C=Nc2cccc(C=C3CN(C)CC(=Cc4ccccc4F)C3=O)c2)c(O)c1 [Compound 101] | 13.9 ± 0.3 µM | 10.8 ± 0.1 µM | 1.3 | 4.8 ± 0.1 µM | 2.9 | 3.5 ± 0.2 µM | 4.0 | 3.5 ± 0.2 µM | 4.0 | 4.7 ± 0.2 µM | 3.0 | 4.9 ± 0.1 µM | 2.8 | 8.9 ± 0.2 µM | 1.6 | 
CN1C/C(=C\c2cccc([N+](=O)[O-])c2)C(=O)/C(=C/c2ccc(F)cc2F)C1 [Compound 84] | 19.3 ± 0.3 µM | 7.6 ± 0.8 µM | 2.5 | 8.2 ± 0.3 µM | 2.4 | 6.2 ± 0.3 µM | 3.1 | 11.8 ± 0.2 µM | 1.6 | 8.5 ± 0.2 µM | 2.3 | 9.5 ± 0.1 µM | 2.0 | 10.2 ± 0.2 µM | 1.9 | 
CN1C/C(=C\c2cc(F)cc(F)c2)C(=O)/C(=C/c2cccc([N+](=O)[O-])c2)C1 [Compound 85] | 20.3 ± 0.1 µM | 24.5 ± 0.8 µM | 0.8 | 14.3 ± 0.1 µM | 1.4 | 9.7 ± 0.2 µM | 2.1 | 5.4 ± 0.3 µM | 3.8 | 18.5 ± 0.4 µM | 1.1 | 13.2 ± 0.5 µM | 1.5 | 14.2 ± 0.6 µM | 1.4 | 
CN1C/C(=C\c2cccc([N+](=O)[O-])c2)C(=O)/C(=C/c2cc(F)ccc2F)C1 [Compound 86] | 21.3 ± 0.4 µM | 20.5 ± 0.5 µM | 1.0 | 9.2 ± 0.4 µM | 2.3 | 9.3 ± 0.4 µM | 2.3 | 7 ± 0.2 µM | 3.0 | 11.1 ± 0.7 µM | 1.9 | 10.5 ± 0.9 µM | 2.0 | 11.5 ± 0.8 µM | 1.9 | 
CN1C/C(=C\c2cccc([N+](=O)[O-])c2)C(=O)/C(=C/c2ccccc2F)C1 [Compound 83, (3E,5E)-3–(2-fluorobenzylidene)-1-methyl-5–(3-nitrobenzylidene)piperidin-4-one] |  |  | 3.5 |  |  |  | 5.7 |  |  |  | 1.8 |  | 2.1 |  | 5.2 | IC50 ([1]; Homo sapiens): 13.1 ± 0.8 µM; IC50 ([2]; Homo sapiens, SGC-7901): 3.7 ± 0.3 µM; IC50 ([3]; Homo sapiens, HepG2, 24 h): 1.2 ± 0.2 µM; IC50 ([4]; Homo sapiens, A549, 24 h): 2.3 ± 0.2 µM; IC50 ([5]; Homo sapiens, THP-1, 24 h): 1.3 ± 0.1 µM; IC50 ([6]; Homo sapiens, MCF7): 7.2 ± 0.3 µM; IC50 ([7]; Homo sapiens, HCT-116): 6.2 ± 0.6 µM; IC50 ([8]; Homo sapiens, HeLa): 2.5 ± 0.3 µM
COc1cc(/C=C/C(=O)CC(=O)/C=C/c2ccc(O)c(OC)c2)ccc1O [Curcumin, reference compound] |  |  | 1.2 |  | 1.4 |  | 1.2 |  | 1.4 |  | 1.4 |  | 1.6 |  | 1.5 | IC50 ([1]; Homo sapiens): 28.3 ± 1.2 µM; IC50 ([2]; Homo sapiens, SGC-7901): 22.8 ± 0.6 µM; IC50 ([3]; Homo sapiens, HepG2, 24 h): 20.7 ± 0.1 µM; IC50 ([4]; Homo sapiens, A549, 24 h): 22.7 ± 1 µM; IC50 ([5]; Homo sapiens, THP-1, 24 h): 20.8 ± 0.6 µM; IC50 ([6]; Homo sapiens, MCF7): 20.5 ± 0.2 µM; IC50 ([7]; Homo sapiens, HCT-116): 17.2 ± 0.3 µM; IC50 ([8]; Homo sapiens, HeLa): 19.4 ± 0.6 µM
COc1ccc(/C=C2\CN(C)C/C(=C\c3ccc(Cl)c(Cl)c3)C2=O)cc1 [Compound 91] | 14.2 ± 0.3 µM | 6.4 ± 0.1 µM | 2.2 | 4.5 ± 0.7 µM | 3.2 | 9.2 ± 0.1 µM | 1.5 | 7.2 ± 0.2 µM | 2.0 | 12.5 ± 0.5 µM | 1.1 | 18.1 ± 0.2 µM | 0.8 | 17 ± 1.3 µM | 0.8 | 
CN1C/C(=C\c2cccc([N+](=O)[O-])c2)C(=O)/C(=C/c2ccc(F)cc2Br)C1 [Compound 87] | 13.7 ± 0.5 µM | 4.7 ± 0.3 µM | 2.9 | 5.4 ± 0.5 µM | 2.5 | 4.3 ± 0.3 µM | 3.2 | 6.6 ± 0.1 µM | 2.1 | 11.6 ± 0.3 µM | 1.2 | 7.7 ± 0.4 µM | 1.8 | 9.4 ± 0.5 µM | 1.5 | 
COc1ccc(/C=C2\CN(C)C/C(=C\c3cc(OC)c(OC)c(OC)c3)C2=O)cc1 [Compound 90] | 16.5 ± 0.1 µM | 7 ± 0.4 µM | 2.4 | 8.2 ± 0.6 µM | 2.0 | 5.8 ± 0.2 µM | 2.8 | 5 ± 0.3 µM | 3.3 | 15.5 ± 0.9 µM | 1.1 | 12.1 ± 0.4 µM | 1.4 | 15.5 ± 0.2 µM | 1.1 | 
CN1CC(=Cc2cccc(N=Cc3cc(O)ccc3O)c2)C(=O)C(=Cc2ccccc2F)C1 [Compound 99] | 15.6 ± 0.4 µM | 4.7 ± 0.3 µM | 3.3 | 8.2 ± 0.1 µM | 1.9 | 4.4 ± 0.1 µM | 3.5 | 7.8 ± 0.4 µM | 2.0 | 5.9 ± 0.2 µM | 2.6 | 7.42 ± 0.1 µM | 2.1 | 15.3 ± 1.1 µM | 1.0 | 
CN1CC(=Cc2cccc(N=Cc3ccc(O)cc3O)c2)C(=O)C(=Cc2ccccc2F)C1 [Compound 98] | 17.6 ± 0.2 µM | 10.9 ± 0.3 µM | 1.6 | 7.5 ± 0.1 µM | 2.3 | 3.2 ± 0.7 µM | 5.5 | 5.1 ± 0.2 µM | 3.5 | 10.3 ± 0.7 µM | 1.7 | 11.4 ± 0.7 µM | 1.5 | 6.2 ± 0.1 µM | 2.8 | 
COc1cc(Br)c(O)c(C=Nc2cccc(C=C3CN(C)CC(=Cc4ccccc4F)C3=O)c2)c1 [Compound 102] | 14.8 ± 0.1 µM | 7 ± 0.4 µM | 2.1 | 5.9 ± 0.1 µM | 2.5 | 13.4 ± 0.7 µM | 1.1 | 5 ± 0.2 µM | 3.0 | 15.5 ± 1.2 µM | 1.0 | 18.1 ± 1.9 µM | 0.8 | 9.1 ± 0.2 µM | 1.6 | 
